Source: the Deep4Chem optical property database
One block for each compound: values may come before it.

Experiment: photoluminescence quantum yield (fraction); solvent given as SMILES

SMILES: CSc1cc(-c2cc3cc4c5c(c3oc2=O)CCCN5CCC4)oc(=O)c1C#N
photoluminescence quantum yield (in C1CCOC1): 0.9
photoluminescence quantum yield (in CC#N): 0.29
photoluminescence quantum yield (in CC(C)=O): 0.43
photoluminescence quantum yield (in CCOC(C)=O): 0.67
photoluminescence quantum yield (in CN(C)C=O): 0.26
photoluminescence quantum yield (in CO): 0.22
photoluminescence quantum yield (in CS(C)=O): 0.29
photoluminescence quantum yield (in Cc1ccccc1): 0.71
photoluminescence quantum yield (in ClC(Cl)Cl): 0.53
photoluminescence quantum yield (in ClCCl): 0.63

photoluminescence quantum yield (in ClCCl): 0.04
SMILES: Cc1cc2ccccc2c2c1c1ccccc1n2-c1ccc(C#N)cc1

photoluminescence quantum yield (in ClCCl): 0.047
SMILES: CCn1c2ccc(-c3cccs3)cc2c2cc(-c3cccs3)ccc21

photoluminescence quantum yield (in CO): 0.16
SMILES: c1ccc(N(c2ccccc2)c2ccc(-c3ncc(-c4ccc(-c5cnc(-c6ccc(N(c7ccccc7)c7ccccc7)cc6)s5)s4)s3)cc2)cc1

photoluminescence quantum yield (in C1CCOC1): 0.32
SMILES: Cc1ccc(-c2ccc(-c3ccc(C)cc3)c(/C(=C(/c3ccccc3)c3cc(-c4ccc(C)cc4)ccc3-c3ccc(C)cc3)c3ccccc3)c2)cc1

photoluminescence quantum yield (in CC#N): 0.0011
photoluminescence quantum yield (in CO): 0.001
photoluminescence quantum yield (in O): 0.0014
SMILES: CN(C)CCCN1c2ccccc2Sc2ccc(C(F)(F)F)cc21

photoluminescence quantum yield (in C1CCCCC1): 0.88
SMILES: C[Si](C)(C)C#Cc1ccc2c3cccc4cccc(c5cccc1c52)c43

SMILES: N#C/C=C/c1ccc2ccc3cccc4ccc1c2c34
photoluminescence quantum yield (in C1CCOC1): 0.72
photoluminescence quantum yield (in C1COCCO1): 0.63
photoluminescence quantum yield (in CC#N): 0.32
photoluminescence quantum yield (in CC(C)=O): 0.62
photoluminescence quantum yield (in CCCCCC): 0.53
photoluminescence quantum yield (in CCOC(C)=O): 0.62
photoluminescence quantum yield (in CO): 0.44
photoluminescence quantum yield (in Cc1ccccc1): 0.55

photoluminescence quantum yield (in ClCCl): 0.63
SMILES: CCCCn1c(-c2ccc(-c3nnc(-c4ccc(-c5nc6ccccc6n5CCCC)cc4)o3)cc2)nc2ccccc21

photoluminescence quantum yield (in CO): 0.17
SMILES: CCCCCCc1cc(B(c2c(C)cc(C)cc2C)c2c(C)cc(C)cc2C)c(-c2sc(CCCCCC)cc2P(=O)(c2ccccc2)c2ccccc2)s1

photoluminescence quantum yield (in ClCCl): 0.29
SMILES: Cc1cccc(C)c1/C=C/c1nc(N2CCOCC2)c2c([n+]1[O-])CCCC2

SMILES: CCN(CC)c1ccc2cc(/C(Cl)=C/C=C/C(=C(C#N)C#N)c3ccc4c(c3)c3ccccc3n4CC)c(=O)oc2c1
photoluminescence quantum yield (in CC(C)=O): 0.019
photoluminescence quantum yield (in CCOC(C)=O): 0.052
photoluminescence quantum yield (in CN(C)C=O): 0.042
photoluminescence quantum yield (in CS(C)=O): 0.018
photoluminescence quantum yield (in Cc1ccccc1): 0.091
photoluminescence quantum yield (in ClCCl): 0.096

SMILES: c1ccc(N2c3ccc4ccccc4c3-c3c4ccccc4cc[n+]3[B-]2(c2ccccc2)c2ccccc2)cc1
photoluminescence quantum yield (in Cc1ccccc1): 0.17

photoluminescence quantum yield (in ClCCl): 0.14
SMILES: CC(C)(C)c1ccc2c(c1)c1cc(C(C)(C)C)ccc1n2-c1ccc(N(c2ccc(-c3ccc(-c4ccc(-c5ccc(-c6ccc(-c7ccc(N(c8ccc(-n9c%10ccc(C(C)(C)C)cc%10c%10cc(C(C)(C)C)ccc%109)cc8)c8ccc(-n9c%10ccc(C(C)(C)C)cc%10c%10cc(C(C)(C)C)ccc%109)cc8)cc7)s6)s5)s4)s3)cc2)c2ccc(-n3c4ccc(C(C)(C)C)cc4c4cc(C(C)(C)C)ccc43)cc2)cc1

photoluminescence quantum yield (in ClCCl): 0.3
SMILES: CCCCC(CC)Cn1c2cc(C#N)ccc2c2ccc(C#N)cc21 (stereo not drawn)

photoluminescence quantum yield (in c1cc(-n2c3ccccc3c3ccccc32)cc(-n2c3ccccc3c3ccccc32)c1): 0.93
SMILES: N#Cc1cc(-n2c3ccccc3c3ncccc32)c(-n2c3ccccc3c3ncccc32)cc1C#N

SMILES: c1ccc(-c2nnc(-c3ccc(-n4c5ccccc5c5ccccc54)cc3)o2)cc1
photoluminescence quantum yield (in Cc1ccccc1): 0.57

photoluminescence quantum yield (in C1CCOC1): 0.52
SMILES: COc1cc2c(cc1-c1ccc(F)cc1)Cc1c3c(c4c(c1-2)-c1cc(OC)c(-c2ccc(F)cc2)cc1C4)C(=O)N(CCC(C)C)C3=O

photoluminescence quantum yield (in ClCCl): 0.32
SMILES: CCCCNC(=O)c1sc(-c2ccc(-c3cc(-c4ccc(C(C)(C)C)cc4)c(C(=O)NCCCC)s3)s2)cc1-c1ccc(C(C)(C)C)cc1

photoluminescence quantum yield (in ClCCl): 0.97
SMILES: CCN(CC)c1ccc2cc(-c3nc4c5ccccc5c5ccccc5c4n3-c3ccc(C(C)(C)C)cc3)c(=O)oc2c1

SMILES: CCN1/C(=C\c2c(-c3ccc(N(C)C)cc3)c(=O)c2=O)C=Cc2ccccc21
photoluminescence quantum yield (in C1CCCCC1): 0.0276
photoluminescence quantum yield (in Cc1ccccc1): 0.0226
photoluminescence quantum yield (in ClCCl): 0.001

SMILES: CC1(C)c2ccccc2N(c2ccc(C(=C(C#N)C#N)c3ccc(N4c5ccccc5C(C)(C)c5ccccc54)cc3)cc2)c2ccccc21
photoluminescence quantum yield (in Cc1ccccc1): 0.0171

photoluminescence quantum yield (in ClCCl): 0.03
SMILES: CC(C)(C)NC(=O)c1ccc(-c2ccc(N3c4ccccc4Oc4ccccc43)cc2)c2ccc3c4ccc(F)cc4c4cc(F)ccc4c3c12

photoluminescence quantum yield (in ClCCl): 0.03
SMILES: CC(C)(C)c1ccc2c(c1)c1cc(C(C)(C)C)ccc1n2-c1ccc(N(c2ccc(-c3ccc(-c4ccc(-c5ccc(-c6ccc(N(c7ccc(-n8c9ccc(C(C)(C)C)cc9c9cc(C(C)(C)C)ccc98)cc7)c7ccc(-n8c9ccc(C(C)(C)C)cc9c9cc(C(C)(C)C)ccc98)cc7)cc6)cc5)c5nsnc45)cc3)cc2)c2ccc(-n3c4ccc(C(C)(C)C)cc4c4cc(C(C)(C)C)ccc43)cc2)cc1

SMILES: CCCCOC(=O)c1cc(Oc2ccc(C(C)(C)C)cc2)c2c3c(Cl)cc4c5c(cc(Cl)c(c6c(Oc7ccc(C(C)(C)C)cc7)cc(C(=O)OCCCC)c1c26)c53)C(=O)N(c1c(C(C)C)cccc1C(C)C)C4=O
photoluminescence quantum yield (in Cc1ccccc1): 0.79

photoluminescence quantum yield (in CO): 0.43
photoluminescence quantum yield (in ClC(Cl)Cl): 0.58
SMILES: CCCCCCCCCCN1C(=O)c2cc(NCCCOCCO)c3c4c(cc(NCCCOCCO)c(c24)C1=O)C(=O)N(CCCCCCCCCC)C3=O

SMILES: CN(C)c1ccc(C#Cc2ccc(C#N)cc2)cc1
photoluminescence quantum yield (in C1CCCCC1): 0.455
photoluminescence quantum yield (in C1CCOC1): 0.4
photoluminescence quantum yield (in C1COCCO1): 0.066
photoluminescence quantum yield (in CC1CCCO1): 0.099
photoluminescence quantum yield (in CC#N): 0.024
photoluminescence quantum yield (in CC(C)=O): 0.49
photoluminescence quantum yield (in CC(C)CC(C)(C)C): 0.032
photoluminescence quantum yield (in CC(C)O): 0.006
photoluminescence quantum yield (in CCCCCCCCCCCCCCCC): 0.3
photoluminescence quantum yield (in CCCCCCCCCCCCCCCCCl): 0.33
photoluminescence quantum yield (in CCOC(C)=O): 0.33
photoluminescence quantum yield (in CCOCC): 0.29
photoluminescence quantum yield (in CN(C)C=O): 0.17
photoluminescence quantum yield (in CS(C)=O): 0.029
photoluminescence quantum yield (in Cc1ccccc1): 0.38

photoluminescence quantum yield (in CC#N): 0.2
photoluminescence quantum yield (in CCCCCC): 0.13
photoluminescence quantum yield (in CO): 0.131
SMILES: c1ccc2c(c1)CCc1ccccc1N2

photoluminescence quantum yield (in ClCCl): 0.3
SMILES: c1ccc(N(c2ccccc2)c2ccc(-c3nc(-c4ccc(N(c5ccccc5)c5ccccc5)cc4)c4ccccc4n3)cc2)cc1

photoluminescence quantum yield (in ClCCl): 0.83
SMILES: CCCCC(CC)COc1ccc2nc(-c3ccc(-c4ccc(OC)cc4)s3)sc2c1 (stereo not drawn)

photoluminescence quantum yield (in C1CCOC1): 0.611
photoluminescence quantum yield (in CCCCCC): 0.564
photoluminescence quantum yield (in CCO): 0.597
photoluminescence quantum yield (in CS(C)=O): 0.585
SMILES: CCCCOc1ccc2cc(-c3ccc(C)cc3)c(=O)oc2c1

SMILES: COC(=O)C(Cc1ccc2oc(-c3ccc(N(c4ccccc4)c4ccccc4)cc3)nc2c1)NC(=O)OC(C)(C)C (stereo not drawn)
photoluminescence quantum yield (in C1CCCCC1): 0.87
photoluminescence quantum yield (in C1CCOC1): 0.77
photoluminescence quantum yield (in C1COCCO1): 0.47
photoluminescence quantum yield (in CC1CCCCC1): 0.94
photoluminescence quantum yield (in CC1COC(=O)O1): 0.67
photoluminescence quantum yield (in CC#N): 0.62
photoluminescence quantum yield (in CC(C)=O): 0.68
photoluminescence quantum yield (in CC(C)O): 0.77
photoluminescence quantum yield (in CC(O)CO): 0.63
photoluminescence quantum yield (in CCCCCC): 0.98
photoluminescence quantum yield (in CCCCCCCC): 0.99
photoluminescence quantum yield (in CCCCCO): 0.76
photoluminescence quantum yield (in CCCCO): 0.87
photoluminescence quantum yield (in CCO): 0.61
photoluminescence quantum yield (in CCOC(C)=O): 0.8
photoluminescence quantum yield (in CN(C)C=O): 0.72
photoluminescence quantum yield (in CO): 0.42
photoluminescence quantum yield (in COCCOC): 0.44
photoluminescence quantum yield (in CS(C)=O): 0.69
photoluminescence quantum yield (in ClC(Cl)Cl): 0.88
photoluminescence quantum yield (in ClCCl): 0.87
photoluminescence quantum yield (in N#Cc1ccccc1): 0.26
photoluminescence quantum yield (in NC=O): 0.35
photoluminescence quantum yield (in O): 0.003
photoluminescence quantum yield (in OCC(F)(F)F): 0.05

photoluminescence quantum yield (in C1CCOC1): 0.59
SMILES: COc1ccc(-c2cc3c(cc2OC)-c2c(c4c(c5c2-c2cc(OC)c(-c6ccc(OC)cc6)cc2C5)C(=O)N(CCC(C)C)C4=O)C3)cc1

photoluminescence quantum yield (in CC#N): 0.83
SMILES: COc1ccc(C#Cc2ccccc2C#Cc2ccc(OC)cc2)cc1

photoluminescence quantum yield (in CS(C)=O): 0.84
SMILES: Cc1cccc(-c2nc3sc4ccccc4c3s2)c1

photoluminescence quantum yield (in C1CCCCC1): 1
SMILES: CCC(C)(C)c1ccc2c(c1)C(CC)(CC)c1cc(-c3ccc(-c4ccc5c(c4)C(CC)(CC)c4cc(C(C)(C)CC)ccc4-5)cc3)ccc1-2

SMILES: F[B-]1(F)Oc2ccccc2-c2cc(-n3c4ccc(-c5ccccc5)cc4c4cc(-c5ccccc5)ccc43)cc[n+]21
photoluminescence quantum yield (in O=P(c1ccccc1)(c1ccccc1)c1ccccc1Oc1ccccc1P(=O)(c1ccccc1)c1ccccc1): 0.7

photoluminescence quantum yield (in CN(C)C=O): 0.036
SMILES: Cc1ccc2nc(-c3cccc4nc(C)[nH]c(=O)c34)[nH]c2c1

SMILES: O=Cc1ccc2nc(C#Cc3ccc(N(c4ccccc4)c4ccccc4)cc3)sc2c1
photoluminescence quantum yield (in Cc1ccccc1): 1

photoluminescence quantum yield (in CC1CCCCC1): 0.44
photoluminescence quantum yield (in CC#N): 0.88
photoluminescence quantum yield (in CO): 0.97
SMILES: COC(=O)C(NC(=O)OC(C)(C)C)c1ccc2oc(-c3ccc(N(C)C)cc3OC)nc2c1 (stereo not drawn)

photoluminescence quantum yield (in CN(C)C=O): 0.5
SMILES: O=c1[nH]nc(-c2ccc(/C=C/c3ccc(-c4n[nH]c(=O)o4)cc3)cc2)o1

photoluminescence quantum yield (in CO): 0.55
photoluminescence quantum yield (in O): 0.29
SMILES: CC1(C)C(/C=C/C=C/C=C/C=C2/N(S(=O)(=O)[O-])c3ccc(S(=O)(=O)[O-])cc3C2(C)C)=[N+](S(=O)(=O)[O-])c2ccc(S(=O)(=O)[O-])cc21

photoluminescence quantum yield (in ClCCl): 0.82
SMILES: CCN(CC)c1ccc2cc(C#N)c(=O)oc2c1

photoluminescence quantum yield (in ClCCl): 0.005
SMILES: CC(=O)c1c(N[C@@H](Cc2ccc(O)cc2)C(=O)O)c2ccc(N(C)C)cc2oc1=O

photoluminescence quantum yield (in ClCCl): 0.24
SMILES: CN(C)c1ccc(/C=C/c2cnc(C#Cc3ccc(C#N)cc3)o2)cc1

photoluminescence quantum yield (in CC#N): 0.05
photoluminescence quantum yield (in CCCCCC): 0.08
photoluminescence quantum yield (in CCOC(C)=O): 0.04
photoluminescence quantum yield (in CO): 0.05
photoluminescence quantum yield (in ClCCl): 0.07
SMILES: COc1ccc2n1[B-](F)(F)[N+]1=C(SC#N)C=CC1=C2c1ccccc1

SMILES: COc1ccccc1-c1nc2c3cccnc3c3ncccc3c2n1-c1ccccc1
photoluminescence quantum yield (in Cc1ccccc1): 0.064
